Reference: patent US20140221369A1, “5-DEUTERO-2,4-THIAZOLIDINEDIONE AND 5-DEUTERO-2,4-OXAZOLIDINEDIONE DERIVATIVES AND COMPOSITIONS COMPRISING AND METHODS OF USING THE SAME” (DeuteRx, LLC, priority 2013, published 2014)

Legend:
[1] = biological target: T1, peroxisome proliferator-activated receptor gamma (PPARγ) (Homo sapiens, UniProt P37231); assay: TRAP220 PPARγ coactivator recruitment assay (Cerep); type: biochemical; conditions: for EC50: TRAP220 coactivator recruitment, percent of control (10 μM rosiglitazone), four-parameter fit, read-out: EC50, PPARγ agonist activity
T1 construct: label (kind not specified); Cerep (France), contract assay
Experimental: The agonist activity of (+)- and (−)-5-[(p-{[6-(4-amino-3,5-xylyloxy)-1-methyl-1,3-diaza-1H-inden-2-yl]methoxy}phenyl)methyl]-(5-^2H)-1,3-thiazolidine-2,4-dione at the peroxisome proliferator-activated receptor gamma (PPARγ) was evaluated in the thyroid receptor-associated protein complex, 220 kDa component (TRAP220) PPARγ coactivator recruitement assay performed at Cerep (France). Briefly, a mixture of labeled PPARγ and TRAP220 coactivator was pre-incubated with a fluorescence acceptor at room temperature for 30 minutes in the presence of a fluorescence acceptor and the test compound. A fluorescence donor was then added and the mixture was incubated for 120 minutes at room temperature. The fluorescence signal was measured and results expressed as a percent of control (10 μM rosiglitazone). A dose response curve was generated for each enantiomer and the experimental data was analyzed using the log(agonist) vs. response−variable slope (four parameters) nonlinear model in GraphPad Prism 6.0 (GraphPad Software, Inc., La Jolla, Calif.).

[2] = In vitro stability in human plasma at 37° C. (enantiomerization and D/H exchange, chiral LC/MS-MS, kinetic fit); type: in vitro ADME; conditions: for k, h+ → h− / k, h− → h+: enantiomerization rate constant, fit of the stability data of the protonated enantiomer
Experimental: The (+)-5-[(p-{[6-(4-amino-3,5-xylyloxy)-1-methyl-1,3-diaza-1H-inden-2-yl]methoxy}phenyl)methyl]-1,3-thiazolidine-2,4-dione, (−)-5-[(p-{[6-(4-amino-3,5-xylyloxy)-1-methyl-1,3-diaza-1H-inden-2-yl]methoxy}phenyl)methyl]-1,3-thiazolidine-2,4-dione, and rac-5-[(p-{[6-(4-amino-3,5-xylyloxy)-1-methyl-1,3-diaza-1H-inden-2-yl]methoxy}phenyl)methyl]-(5-^2H)-1,3-thiazolidine-2,4-dione were incubated in human plasma (K3EDTA as anticoagulant) at 37° C. in duplicates. […] It also contained ˜15% of the protonated enantiomers. Aliquots were removed at time=0, 5, 10, 15, 30 min, and 1, 2, 4, and 8 hours. Plasma proteins were precipitated by addition of acetonitrile containing cisapride as an internal standard (ISTD) and the supernatants were analyzed semi-quantitatively by LC/MS-MS with elution on a chiral column (Daicel ChiralPak IC-3) for the separation of enantiomers (isocratic method of 30:70 v/v 20 mM ammonium bicarbonate in water (pH=9.0) and acetonitrile). Peak areas for the deuterated enantiomers (+)-5-[(p-{[6-(4-amino-3,5-xylyloxy)-1-methyl-1,3-diaza-1H-inden-2-yl]methoxy}phenyl)methyl]-1,3-thiazolidine-2,4-dione and (−)-5-[(p-{[6-(4-amino-3,5-xylyloxy)-1-methyl-1,3-diaza-1H-inden-2-yl]methoxy}phenyl)methyl]-(5-^2H)-1,3-thiazolidine-2,4-dione were normalized to the ISTD and corrected for the isotopic peak of the corresponding protonated enantiomer, (+)-5-[(p-{[6-(4-amino-3,5-xylyloxy)-1-methyl-1,3-diaza-1H-inden-2-yl]methoxy}phenyl)methyl]-1,3-thiazolidine-2,4-dione and (−)-5-[(p-{[6-(4-amino-3,5-xylyloxy)-1-methyl-1,3-diaza-1H-inden-2-yl]methoxy}phenyl)methyl]-1,3-thiazolidine-2,4-dione, respectively, if present. Corrected data were analyzed and plotted using Microsoft Excel 2013 (Microsoft Corp, Redmond, Wash.) and the Excel Solver.
Scheme 1 illustrates possible reactions in a solution of a mixture of deuterated enantiomers when no degradation or side-reactions occur. The deuterium in both enantiomers, d+ and d−, can be lost by D/H exchange to give both protonated enantiomers, h+ and h− with rate constants kD++, kD+−, kD−+, kD−−, where D indicates D/H exchange, the first +/− represents the reagent, d+ or d−, and the second +/− stands for the product, h+ or h−. At the same time, the protonated enantiomers h+ and h− can exchange, with enantiomerization rate constants k+− and k−+.
Illustration of possible reactions and corresponding rate constants in a solution of rac-5-[(p-{[6-(4-amino-3,5-xylyloxy)-1-methyl-1,3-diaza-1H-inden-2-yl]methoxy}phenyl)methyl]-(5-^2H)-1,3-thiazolidine-2,4-dione where d+, d−, h+, h− stand for […] and (−)-5-[(p-{[6-(4-amino-3,5-xylyloxy)-1-methyl-1,3-diaza-1H-inden-2-yl]methoxy}phenyl)methyl]-(5-^2H)-1,3-thiazolidine-2,4-dione and (+)- and (−)-5-[(p-{[6-(4-amino-3,5-xylyloxy)-1-methyl-1,3-diaza-1H-inden-2-yl]methoxy}phenyl)methyl]-1,3-thiazolidine-2,4-dione, respectively.
Independent analyses of the data for h+ and h− were performed first and the average rate constants k+− and k−+ from these two fits were calculated and used as constants in the fitting of the stability data of the deuterated racemate. Calculated concentrations were obtained through numerical approximation of differential equations (1) and (2) for the stability studies of h+ and h− and equations (3) to (6) for the stability study of the enantiomeric mixture of deuterated d+ and d− by the Euler method (equation (7)). The step between calculated time points was minimized in order to minimize the local error (proportional to the square of the step size) and the global error (proportional to the step size). Data analysis was performed in Microsoft Excel 2013, using the Solver Generalized Reduced Gradient Nonlinear method with central derivatives to minimize the sum of sums of weighted Δ^2, square of difference between ISTD-normalized experimental data and calculated value, divided by the experimental data. […]

[3] = D/H exchange rate constant, mixture of d− and d+ in human plasma at 37° C., fit to Equations 1 to 6
[4] = average of enantiomerization rate constants obtained by fitting data for h− and h+, human plasma at 37° C.

T1 sequence (P37231 whole entry): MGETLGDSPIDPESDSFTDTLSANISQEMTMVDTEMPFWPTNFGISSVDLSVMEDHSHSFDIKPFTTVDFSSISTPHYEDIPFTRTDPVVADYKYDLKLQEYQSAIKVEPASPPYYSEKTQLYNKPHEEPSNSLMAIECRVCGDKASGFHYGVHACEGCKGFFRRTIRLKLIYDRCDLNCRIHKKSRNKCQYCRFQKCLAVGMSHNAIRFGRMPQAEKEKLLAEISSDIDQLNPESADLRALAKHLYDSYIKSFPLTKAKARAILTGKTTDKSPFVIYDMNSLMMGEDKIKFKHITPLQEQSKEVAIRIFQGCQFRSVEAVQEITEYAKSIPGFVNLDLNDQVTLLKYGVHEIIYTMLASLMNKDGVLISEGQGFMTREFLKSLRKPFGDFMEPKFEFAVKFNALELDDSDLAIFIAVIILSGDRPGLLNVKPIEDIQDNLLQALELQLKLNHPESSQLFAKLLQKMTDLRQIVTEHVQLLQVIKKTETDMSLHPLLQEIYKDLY
T1 sequence (Q15648 whole entry partner): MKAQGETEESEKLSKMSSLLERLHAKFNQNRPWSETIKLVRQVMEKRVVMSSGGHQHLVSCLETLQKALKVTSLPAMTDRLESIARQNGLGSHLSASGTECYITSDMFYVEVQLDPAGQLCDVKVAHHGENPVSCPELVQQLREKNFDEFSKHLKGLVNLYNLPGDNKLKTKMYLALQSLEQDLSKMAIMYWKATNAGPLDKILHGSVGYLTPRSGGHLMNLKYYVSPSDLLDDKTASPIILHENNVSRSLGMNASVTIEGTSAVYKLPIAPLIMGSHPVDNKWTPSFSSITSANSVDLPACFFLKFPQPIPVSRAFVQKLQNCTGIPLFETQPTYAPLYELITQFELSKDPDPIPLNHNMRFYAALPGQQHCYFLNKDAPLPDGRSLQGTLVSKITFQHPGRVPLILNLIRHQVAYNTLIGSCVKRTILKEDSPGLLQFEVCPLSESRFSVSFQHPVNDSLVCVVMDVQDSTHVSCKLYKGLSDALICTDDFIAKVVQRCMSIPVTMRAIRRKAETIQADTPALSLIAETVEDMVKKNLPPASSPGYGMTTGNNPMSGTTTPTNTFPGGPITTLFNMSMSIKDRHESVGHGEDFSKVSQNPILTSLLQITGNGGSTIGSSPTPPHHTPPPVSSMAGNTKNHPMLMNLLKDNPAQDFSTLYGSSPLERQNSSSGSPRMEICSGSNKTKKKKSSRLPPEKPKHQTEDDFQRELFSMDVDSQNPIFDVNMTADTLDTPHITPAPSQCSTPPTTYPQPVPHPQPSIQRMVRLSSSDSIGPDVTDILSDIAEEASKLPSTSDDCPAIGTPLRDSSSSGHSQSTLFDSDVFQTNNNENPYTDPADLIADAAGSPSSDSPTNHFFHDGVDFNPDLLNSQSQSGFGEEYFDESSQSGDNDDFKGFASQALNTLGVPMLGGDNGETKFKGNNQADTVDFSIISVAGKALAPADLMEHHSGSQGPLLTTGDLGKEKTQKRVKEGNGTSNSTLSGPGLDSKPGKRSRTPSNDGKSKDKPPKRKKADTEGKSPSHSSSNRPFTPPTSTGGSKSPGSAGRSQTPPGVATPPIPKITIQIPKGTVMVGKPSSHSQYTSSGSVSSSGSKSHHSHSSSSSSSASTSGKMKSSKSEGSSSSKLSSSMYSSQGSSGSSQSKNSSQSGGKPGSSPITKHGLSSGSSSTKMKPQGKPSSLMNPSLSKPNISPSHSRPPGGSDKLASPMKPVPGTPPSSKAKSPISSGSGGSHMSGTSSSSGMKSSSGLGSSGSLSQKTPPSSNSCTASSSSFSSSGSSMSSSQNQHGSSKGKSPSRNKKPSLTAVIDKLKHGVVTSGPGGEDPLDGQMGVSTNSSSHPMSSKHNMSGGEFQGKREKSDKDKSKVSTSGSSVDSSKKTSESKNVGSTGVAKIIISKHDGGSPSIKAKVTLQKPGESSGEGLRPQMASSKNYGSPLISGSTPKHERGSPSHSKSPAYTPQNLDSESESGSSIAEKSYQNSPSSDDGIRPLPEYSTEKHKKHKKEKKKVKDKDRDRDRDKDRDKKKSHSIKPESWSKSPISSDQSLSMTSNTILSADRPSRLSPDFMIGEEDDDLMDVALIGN

SMILES: [2H]C1(Cc2ccc(OCc3nc4ccc(Oc5cc(C)c(N)c(C)c5)cc4n3C)cc2)SC(=O)NC1=O (single isomer, unassigned; (-)) [d−, (−)-5-[(p-{[6-(4-amino-3,5-xylyloxy)-1-methyl-1,3-diaza-1H-inden-2-yl]methoxy}phenyl)methyl]-(5-^2H)-1,3-thiazolidine-2,4-dione]
- EC50 [1]: 7.4 nM
- stability of d− relative to h− ([2]; human plasma at 37° C.): not more stable than h−

SMILES: [2H]C1(Cc2ccc(OCc3nc4ccc(Oc5cc(C)c(N)c(C)c5)cc4n3C)cc2)SC(=O)NC1=O (racemic) [d−/d+, rac-5-[(p-{[6-(4-amino-3,5-xylyloxy)-1-methyl-1,3-diaza-1H-inden-2-yl]methoxy}phenyl)methyl]-(5-^2H)-1,3-thiazolidine-2,4-dione]
- k, d+ → h+ [2, 3]: 0 h⁻¹
- k, d+ → h− [2, 3]: 0.300 h⁻¹
- k, d− → h+ [2, 3]: 0.211 h⁻¹
- k, d− → h− [2, 3]: 0.499 h⁻¹
- k, h+ → h− (average used in analysis of the deuterated mixture) [2, 4]: 0.802 h⁻¹
- k, h− → h+ (average used in analysis of the deuterated mixture) [2, 4]: 0.668 h⁻¹

SMILES: Cc1cc(Oc2ccc3nc(COc4ccc(CC5SC(=O)NC5=O)cc4)n(C)c3c2)cc(C)c1N (single isomer, unassigned; (-)) [h−, (−)-5-[(p-{[6-(4-amino-3,5-xylyloxy)-1-methyl-1,3-diaza-1H-inden-2-yl]methoxy}phenyl)methyl]-1,3-thiazolidine-2,4-dione, reference compound]
- k, h+ → h− ([2]; human plasma at 37° C.): 0.800 h⁻¹
- k, h− → h+ ([2]; human plasma at 37° C.): 0.671 h⁻¹

SMILES: [2H]C1(Cc2ccc(OCc3nc4ccc(Oc5cc(C)c(N)c(C)c5)cc4n3C)cc2)SC(=O)NC1=O (single isomer, unassigned; (+)) [d+, (+)-5-[(p-{[6-(4-amino-3,5-xylyloxy)-1-methyl-1,3-diaza-1H-inden-2-yl]methoxy}phenyl)methyl]-(5-^2H)-1,3-thiazolidine-2,4-dione]
- EC50 [1]: 48.7 nM
- stability of d+ relative to h+ ([2]; human plasma at 37° C.): 2-3 fold

SMILES: Cc1cc(Oc2ccc3nc(COc4ccc(CC5SC(=O)NC5=O)cc4)n(C)c3c2)cc(C)c1N (single isomer, unassigned; (+)) [h+, (+)-5-[(p-{[6-(4-amino-3,5-xylyloxy)-1-methyl-1,3-diaza-1H-inden-2-yl]methoxy}phenyl)methyl]-1,3-thiazolidine-2,4-dione, reference compound]
- k, h+ → h− ([2]; human plasma at 37° C.): 0.803 h⁻¹
- k, h− → h+ ([2]; human plasma at 37° C.): 0.665 h⁻¹

SMILES: Cc1cc(Oc2ccc3nc(COc4ccc(CC5SC(=O)NC5=O)cc4)n(C)c3c2)cc(C)c1N (single isomer, unassigned; (+)) [d+, (+)-5-[(p-{[6-(4-amino-3,5-xylyloxy)-1-methyl-1,3-diaza-1H-inden-2-yl]methoxy}phenyl)methyl]-(5-^2H)-1,3-thiazolidine-2,4-dione]
- potency relative to the (−) enantiomer d− (fold less potent) ([1]; ratio of EC50): 7 fold
